# Test results as given in patent publication US10675293B2, “Nucleoside agents for the reduction of the deleterious activity of extended nucleotide repeat containing genes” (The Board of Trustees of the Leland Stanford Junior …, priority 2015, dated 2020).
# “Also recorded” adds a separate entry of the source.
# Tests used:
# Q44-GFP = test: PolyQ-tagged GFP reporter in HEK293 cells, Q44-GFP; assay type: cell-based; conditions: 48 hours after transfection
# Description: (§1) CAG repeats and part of the flanking region in the first exon of Htt gene were PCR amplified from cDNA of HD patient lymphoblastoid cells containing one normal and one mutant allele (Q22 and Q44) with additional flanking restriction enzyme sites NheI. The PCR fragments were than in-frame fused with pEGFP-C1 at the end of the EGFP gene to express polyQ tagged GFP.
# (§2) Normal length of poly Q (Q20) and pathogenic length of poly Q(Q44) were in-frame fused at the amino-terminus of eGFPC1 protein to generate Q44- and Q20-GFP (FIG. 8A). The plasmid carrying the polyQ tagged GFP was transfected into HEK 293 cells with greater than 90% transfection efficiency.
# (§3) HEK293 cells were transiently transfected with the above mentioned GFP constructs. Five hours after transfection, cells were split among the wells of a 24-well plate and various concentrations of HD101 were added into the wells. 48 hours after transfection, cells were washed with PBS, fixed with 4% paraformaldehyde, and then nuclear stained with DAPI. The cell images were taken by fluorescent microscope (FIG. 9A) and the GFP and DAPI intensity of each field were quantitated using software Image Pro 6.2.
# [1] = system: mutant Huntingtin protein; test: Western blot of mutant HTT in Huntington's disease patient iPSC ND36999; assay type: cell-based, human; conditions: iPSC with 180 CAG repeats, 24 hr
# Experimental: Cell samples were lysed in 30 mM Tris-HCl, pH 8.0, 5 mM NaCl, 0.1% Triton X-100 for 10 min on ice. The supernatants from spinning (14 k rpm for 10 min) were collected. The protein concentrations were determined by BCA assay (Pierce, ThermoFisher). Equal amounts of protein were loaded onto 4-12% gel. After electrophoresis, the gels were transferred to nitrocellulose membranes by wet transfer at 35V for 16 hr. The protein level of mutant HTT, total HTT and tubulin were determined by immunoblotting with anti-poly Glutamine (MAB1574 from Millipore), anti-Huntingtin protein (MAB2166 from Millipore) and anti-alpha tubulin (AJ1034a from ABGENT). Blots were imaged on a Li-Cor Odyssey infrared imager. The bands intensities were determined by Li-Cor Odyssey software.
# To test whether the nucleoside 6-Azauridine (HD101) and (−)-6-Azauridine 2′,3′,5′-triacetate (HD106) can affect the expression of proteins with long polyQ domains, one iPSC (induced pluripotent stem cell) line ND36999, which was derived from a Huntington's disease patient who carries one allele of mutant htt gene with 180 CAG repeats, was purchased from the Coriell Institute. The iPSCs were plated into a 24-well plate coated with Matrigel. […] Cells were lysed and the protein concentrations were determined by BCA assay. […] The image (FIG. 10) was taken and the quantification was made by Li-Cor Odyssey imaging system.
# Q20-GFP = test: PolyQ-tagged GFP reporter in HEK293 cells, Q20-GFP; assay type: cell-based; conditions: higher concentration, 48 hours after transfection
# Description: as §1, §2, §3
# mutant Htt gene = test: RT-PCR of Htt mRNA in Hdh Q111/Q111 striatal cells; assay type: cell-based, mouse; conditions: compared to mock control
# Experimental: Tet-on HeLa cells (Clontech Laboratories), and stable line 2-PN4 and 21-VS were cultured in DMEM (Gibco) supplemented with 10% Tet-off fetal bovine serum (Gibco) at 37° C. with 5% CO2. Hdh Q7/Q7 (mouse), Hdh Q111/Q111 (mouse) were cultured in DMEM (HyClone) supplemented with 10% fetal bovine serum at 33° C. with 5% C02.
# Total RNA was extracted from murine neuronal cells using TRI Reagent (Sigma). For cDNA conversion, 2 μg of total RNA was mixed with 5 μM random primer, 5 μM SnRNA U6 rt-PCR primer and 500 μM dNTPs, incubated at 65° C. for 5 min and then chilled on ice. After addition of First-Strand Buffer, DTT (Cf=10 mM) and 1 μl reverse transcriptase (Invitrogen), the reaction was carried out at 42° C. for 1 hr. Equal volumes of cDNA products were PCR amplified and resolved on 2.5% agarose gels to determine the abundance of Htt transcripts after normalization with U6 or 18S ribosomal RNA.
structure (smiles),measurement,setting,value
"O=c1cnn([C@@H]2O[C@H](CO)[C@@H](O)[C@H]2O)c(=O)[nH]1 [HD101, 6-Azauridine]",Q44-GFP expression (GFP intensity normalized with DAPI),Q44-GFP; higher concentration,down regulating both Q20 and Q44-GFP significantly
same,Q44-GFP expression (GFP intensity normalized with DAPI),Q44-GFP; low concentration,down regulates
same,mutant Huntingtin protein level,[1],preferentially decrease mutant Huntingtin protein in a dose dependent manner; also recorded: reduced mutant huntingtin expression in a dose dependent manner
same,Q20-GFP expression (GFP intensity normalized with DAPI),Q20-GFP,down regulating both Q20 and Q44-GFP significantly
same,Htt mRNA transcribed from mutant allele,mutant Htt gene,down-regulates the expression of mutant Htt gene
